Data reported in PubChem BioAssay AID330 (DTP/NCI, 2004).
“And” between values parts separate entries of the source, which are not always exact repeats. Equal values may be shown once. Inconclusive results and toxic doses are left out. How the source made its calls: active means survival T/C of 150% or more; inactive means T/C below 125% in these data.

System: P388 leukemia ip, CD2F1 mice, survival T/C
Assay: NCI In Vivo Anticancer Drug Screen. Data for tumor model P388 Leukemia (intraperitoneal) in CD2F1 (CDF1) mice
Conditions: endpoint: median survival time, higher = longer survival
Outline: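 Mice carrying the transplanted tumor received test compound or vehicle. Survival was recorded in each group, and the value is the treated-group measurement divided by that of the vehicle-treated control group.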

[1] = dose: 25.0 mg/kg/injection, schedule: Q01DX009 (ip), vehicle: Klucel (hydroxypropylcellulose) (HPC)
[2] = dose: 50.0 mg/kg/injection, schedule: Q01DX009 (ip), vehicle: Klucel (hydroxypropylcellulose) (HPC)
[3] = dose: 100.0 mg/kg/injection, schedule: Q01DX009 (ip), vehicle: Klucel (hydroxypropylcellulose) (HPC)
[4] = dose: 50.0 mg/kg/injection, schedule: Q01DX009 (ip), vehicle: saline with Tween-80
[5] = dose: 100.0 mg/kg/injection, schedule: Q01DX009 (ip), vehicle: saline with Tween-80
[6] = dose: 10.0 mg/kg/injection, schedule: Q01DX009 (ip), vehicle: saline
[7] = dose: 60.0 mg/kg/injection, schedule: Q01DX005 (ip), vehicle: saline with Tween-80
[8] = dose: 120.0 mg/kg/injection, schedule: Q01DX005 (ip), vehicle: saline with Tween-80
[9] = dose: 240.0 mg/kg/injection, schedule: Q01DX005 (ip), vehicle: saline with Tween-80
[10] = dose: 50.0 mg/kg/injection, schedule: Q01DX009 (ip), vehicle: saline
[11] = dose: 100.0 mg/kg/injection, schedule: Q01DX009 (ip), vehicle: saline
[12] = dose: 60.0 mg/kg/injection, schedule: Q01DX005 (ip), vehicle: Klucel (hydroxypropylcellulose) (HPC)
[13] = dose: 120.0 mg/kg/injection, schedule: Q01DX005 (ip), vehicle: Klucel (hydroxypropylcellulose) (HPC)
[14] = dose: 240.0 mg/kg/injection, schedule: Q01DX005 (ip), vehicle: Klucel (hydroxypropylcellulose) (HPC)
[15] = dose: 200.0 mg/kg/injection, schedule: Q01DX009 (ip), vehicle: saline
[16] = dose: 12.5 mg/kg/injection, schedule: Q01DX005 (ip), vehicle: saline

Measured: T/C

NC(=Nc1ccccc1)SCCCCCCSC(N)=Nc1ccccc1
inactive: [1] 100 % of control | [2] 102 % of control | [3] 100 % of control

Cc1cc2nc3c(=O)[nH]c(=O)nc-3n(CC(O)C(O)C(O)CO)c2cc1C (stereo not given)
inactive: [4] 99 % of control and 104 % of control | [5] 96 % of control and 98 % of control

O=C1C/C(=N\Nc2nc(-c3ccc(Cl)cc3)cs2)C(c2ccccc2)N1c1ccccc1 (stereo not given)
inactive: dose: 100.0 mg/kg/injection, schedule: Q01DX001 (ip), vehicle: saline with Tween-80 98 % of control | dose: 200.0 mg/kg/injection, schedule: Q01DX001 (ip), vehicle: saline with Tween-80 90 % of control | dose: 400.0 mg/kg/injection, schedule: Q01DX001 (ip), vehicle: saline with Tween-80 90 % of control

COC(=O)NC1C(C)OC(OC2C/C=C(/C)C3C=CC4C(OC5CC(OC6CC(O)C(OC7CC(O)C(OC)C(C)O7)C(C)O6)C(O)C(C)O5)C(C)CC(C)C4C3(C)/C(O)=C3\C(=O)OC4(CC(C)C(CO)=CC4/C=C\2C)C3=O)CC1(C)[N+](=O)[O-] (stereo not given)
inactive: dose: 50.0 mg/kg/injection, schedule: Q01DX005 (ip), vehicle: Klucel (hydroxypropylcellulose) (HPC) 118 % of control and 123 % of control

CC1(C)OC2(C)CCC1C1C2N1C(=O)Nc1cccc(Cl)c1 (stereo not given)
inactive: dose: 50.0 mg/kg/injection, schedule: Q01DX005 (ip), vehicle: saline with Tween-80 101 % of control | dose: 100.0 mg/kg/injection, schedule: Q01DX005 (ip), vehicle: saline with Tween-80 92 % of control | dose: 200.0 mg/kg/injection, schedule: Q01DX005 (ip), vehicle: saline with Tween-80 89 % of control

Cn1cc(CCc2cc[n+](CCC[N+](C)(C)C)cc2)c2ccccc21
inactive: dose: 1.25 mg/kg/injection, schedule: Q01DX009 (ip), vehicle: saline 101 % of control | dose: 2.5 mg/kg/injection, schedule: Q01DX009 (ip), vehicle: saline 105 % of control | dose: 5.0 mg/kg/injection, schedule: Q01DX009 (ip), vehicle: saline 109 % of control | [6] 108 % of control

CN(C)NP(=O)(NN(C)C)c1ccccc1
inactive: dose: 60.0 mg/kg/injection, schedule: Q01DX005 (ip), vehicle: saline 100 % of control | dose: 120.0 mg/kg/injection, schedule: Q01DX005 (ip), vehicle: saline 103 % of control | dose: 240.0 mg/kg/injection, schedule: Q01DX005 (ip), vehicle: saline 109 % of control

O=C(/N=C1\N=Nc2nc(C(C(=O)c3cccs3)c3nc4n(c3O)/C(=N/C(=O)Nc3ccc(Cl)cc3)N=N4)c(O)n21)Nc1ccc(Cl)cc1 (stereo not given)
inactive: [7] 95 % of control | [8] 95 % of control | [9] 100 % of control

OCCC[N+]12CCCN1CCC2
inactive: [10] 98 % of control | [11] 104 % of control

CCOC(=O)N1Cc2cc3cc(Cl)ccc3nc2C1
inactive: dose: 3.13 mg/kg/injection, schedule: Q01DX009 (ip), vehicle: saline with Tween-80 98 % of control | dose: 6.25 mg/kg/injection, schedule: Q01DX009 (ip), vehicle: saline with Tween-80 105 % of control | dose: 8.0 mg/kg/injection, schedule: Q01DX009 (ip), vehicle: saline with Tween-80 95 % of control | dose: 12.5 mg/kg/injection, schedule: Q01DX009 (ip), vehicle: saline with Tween-80 105 % of control | dose: 16.0 mg/kg/injection, schedule: Q01DX009 (ip), vehicle: saline with Tween-80 88 % of control | dose: 25.0 mg/kg/injection, schedule: Q01DX009 (ip), vehicle: saline with Tween-80 116 % of control | dose: 32.0 mg/kg/injection, schedule: Q01DX009 (ip), vehicle: saline with Tween-80 87 % of control | dose: 64.0 mg/kg/injection, schedule: Q01DX009 (ip), vehicle: saline with Tween-80 95 % of control | dose: 128.0 mg/kg/injection, schedule: Q01DX009 (ip), vehicle: saline with Tween-80 100 % of control

CCOC(=O)c1ccc(NC(=O)OCc2ccco2)cc1
inactive: [12] 89 % of control | [13] 92 % of control | [14] 91 % of control

C[CH2][Pb]([CH2]C)([CH2]C)[O]C(=O)c1ccccc1
inactive: dose: 0.75 mg/kg/injection, schedule: Q01DX009 (ip), vehicle: Klucel (hydroxypropylcellulose) (HPC) 113 % of control | dose: 1.5 mg/kg/injection, schedule: Q01DX009 (ip), vehicle: Klucel (hydroxypropylcellulose) (HPC) 115 % of control | dose: 3.0 mg/kg/injection, schedule: Q01DX009 (ip), vehicle: Klucel (hydroxypropylcellulose) (HPC) 123 % of control | dose: 6.0 mg/kg/injection, schedule: Q01DX009 (ip), vehicle: Klucel (hydroxypropylcellulose) (HPC) 123 % of control | dose: 12.0 mg/kg/injection, schedule: Q01DX009 (ip), vehicle: Klucel (hydroxypropylcellulose) (HPC) 97 % of control

O=S(=O)(Oc1cccc2ccccc12)C(F)(F)C(F)(F)C(F)(F)C(F)(F)F
inactive: [4] 108 % of control | [5] 108 % of control | dose: 200.0 mg/kg/injection, schedule: Q01DX009 (ip), vehicle: saline with Tween-80 105 % of control

CC(C)(C)CC(C)(C)c1ccc(O)cc1
inactive: dose: 66.0 mg/kg/injection, schedule: Q01DX009 (ip), vehicle: saline 100 % of control | [11] 100 % of control | dose: 150.0 mg/kg/injection, schedule: Q01DX009 (ip), vehicle: saline 122 % of control | dose: 200.0 mg/kg/injection, schedule: Q01DX009 (ip), vehicle: saline sonified 118 % of control

COCC(O)COC
inactive: [10] 94 % of control | [11] 96 % of control | [15] 87 % of control

CN(C)CCC(C#N)(CCC1CCCCC1)c1ccccc1 (stereo not given)
inactive: [6] 103 % of control | dose: 20.0 mg/kg/injection, schedule: Q01DX009 (ip), vehicle: saline 104 % of control | dose: 40.0 mg/kg/injection, schedule: Q01DX009 (ip), vehicle: saline 103 % of control

CCN(CC)CCN1C=CC(=C2C(=O)c3ccccc3C2=O)C=C1
inactive: [12] 99 % of control | [13] 101 % of control | [14] 99 % of control

O=C(O)CCc1ccc(O)c(O)c1
inactive: [10] 102 % of control and 111 % of control | [11] 100 % of control and 111 % of control | [15] 108 % of control and 110 % of control | dose: 400.0 mg/kg/injection, schedule: Q01DX009 (ip), vehicle: saline 111 % of control and 115 % of control

CC1=C2C=CCC[C@H](C)[C@H]2CC1
inactive: dose: 3.5 mg/kg/injection, schedule: Q01DX005 (ip), vehicle: water 95 % of control | dose: 7.0 mg/kg/injection, schedule: Q01DX005 (ip), vehicle: water 95 % of control | dose: 14.0 mg/kg/injection, schedule: Q01DX005 (ip), vehicle: water 92 % of control | dose: 28.0 mg/kg/injection, schedule: Q01DX005 (ip), vehicle: water 94 % of control

CCCCN(CCCC)CCCNc1c2c(nc3ccccc13)CCCC2
inactive: [16] 95 % of control | dose: 25.0 mg/kg/injection, schedule: Q01DX005 (ip), vehicle: saline 104 % of control | dose: 50.0 mg/kg/injection, schedule: Q01DX005 (ip), vehicle: saline 100 % of control

C[n+]1ccc2c([N+](=O)[O-])cccc2c1
inactive: dose: 6.25 mg/kg/injection, schedule: Q01DX005 (ip), vehicle: saline 103 % of control | [16] 112 % of control

N#CC(C(=O)C(=O)C(C#N)c1nc2ccccc2s1)c1nc2ccccc2s1 (stereo not given)
inactive: [7] 92 % of control | [8] 101 % of control | [9] 103 % of control

O=c1c2ccccc2c2ccccc2n1O
inactive: dose: 25.0 mg/kg/injection, schedule: Q04DX003 (ip), vehicle: saline with Tween-80 99 % of control | dose: 50.0 mg/kg/injection, schedule: Q04DX003 (ip), vehicle: saline with Tween-80 99 % of control | dose: 100.0 mg/kg/injection, schedule: Q04DX003 (ip), vehicle: saline with Tween-80 97 % of control | dose: 200.0 mg/kg/injection, schedule: Q04DX003 (ip), vehicle: saline with Tween-80 97 % of control

Cc1cn(C2CC3[O][Sn]([c]4ccccc4)([c]4ccccc4)[O]CC3O2)c(=O)[nH]c1=O (stereo not given)
inactive: dose: 12.5 mg/kg/injection, schedule: Q01DX009 (ip), vehicle: saline 124 % of control | dose: 25.0 mg/kg/injection, schedule: Q01DX009 (ip), vehicle: saline 100 % of control

ClCc1nnn(Cc2ccccc2)c1CCl
inactive: [10] 102 % of control | [11] 89 % of control | [15] 92 % of control

CCC/C=c1/[nH]c(=O)/c(=C\c2ccc(OC)cc2)[nH]c1=O
inactive: [1] 101 % of control | [2] 96 % of control | [3] 102 % of control
